Assay results from US20150290105A1, “COMPOSITION COMPRISING SYRINGARESINOL FOR IMPROVING THE SKIN” (AMOREPACIFIC CORPORATION, priority 2011, published 2015).
Blank lines part the entries; values can stand above or below the compound they belong to.

Tests used:
[1] = tested on: Melanocytes (Mel-Ab cells); assay: Melanin production inhibiting effect in mouse melanocytes; format: cell-based; settings: Mus musculus, Mel-Ab; read-out: Melanin production inhibiting rate (%)
Procedure: The melanin production inhibiting effect of the syringaresinol obtained in Example was evaluated using mouse melanocytes. First, melanocytes (Mel-Ab cells) derived from C57BL/6 (treated with Dooley et al.'s method) were cultured under the condition of 37° C. and 5% CO2 in Dulbecco's modified Eagle's medium (DMEM) containing 10% fetal bovine serum, 100 nM 12-O-tetradecanoylphorbol-13-acetate and 1 nM cholera toxin. […] After removing the culture medium and washing with PBS, the cells were dissolved with 1 N sodium hydroxide and absorbance was measured at 400 nm. Melanin production inhibiting rate (%) was calculated according to Equation 2 from the measured absorbance. Melanin production inhibiting rate (%)=100−(Absorbance of test substance) /(Absorbance of control substance)×100 [Equation 2]

[2] = Skin whitening effect when applied to UVB-tanned human skin; format: in vivo; settings: 1% applied on upper arm after UVB, 10 weeks, 12 male subjects
Procedure: First, opaque tapes having holes of 1.5 cm in diameter were attached on the upper arms of 12 healthy male subjects and UVB of about 1.5-2 times the minimal erythemal dose was irradiated to each subject to induce skin tanning. […] Then, the change was monitored for 10 weeks. The color of the skin was measured with 1-week interval using the CR2002 colorimeter (Minolta, Japan). The change in skin color (ΔL*) between the time when the test substance was applied and the time when the test was completed was calculated according to Equation 3. Skin whitening effect is evaluated by comparing the ΔL* of the part where the test substance was applied with that of the control part. A ΔL* value of about 2 can be interpreted as distinct skin whitening effect and one about 1.5 can be evaluated as positive skin whitening effect.
ΔL*=(L* when test was completed)−(L* when test substance was applied) [Equation 3]

[3] = tested on: mushroom-derived tyrosinase; assay: Tyrosinase activity inhibiting effect (dopachrome formation); format: biochemical; settings: 10 ppm, 37° C. 10 minutes
Procedure: The reaction solution was prepared by adding 500 μL of 0.1 M PBS, 15 μg of L-tyrosine and 50 μL of syringaresinol and then adding distilled water to make the final volume 1500 μL. A solution prepared through the same procedure but with Kojic acid instead of syringaresinol was used as a positive control. The concentration of all the samples used in experiment was set to 10 ppm. After adding 10 units of mushroom-derived tyrosinase to the reaction solution, followed by reaction at 37° C. for 10 minutes, the reaction was stopped by quickly transferring onto ice for 5 minutes. The synthesis rate of dopachrome produced was determined by measuring absorbance at 475 nm and tyrosinase activity inhibiting rate (%) was calculated therefrom.

[4] = Skin whitening effect when orally administered, UV-irradiated brown guinea pig; format: in vivo; settings: 1% in feed, 5 weeks, oral
Procedure: Minimal erythemal dose was measured after irradiating UV to guinea pigs. After grouping the guinea pigs with 10 per each group, UV of the minimal erythemal dose was irradiated once a day, for a total of 3 times. The guinea pigs were allowed free access to feed for 5 weeks. The feed contained 1% syringaresinol or 1% vitamin C (Vit C) as a positive control. Skin pigmentation was measure using a colorimeter in substantially the same manner as in Test Example 6.

SMILES: Oc1ccc(O)cc1 [Hydroquinone, hydroquinone, reference compound]
- inhibition at 10 ppm [1]: 58.9%
- Change in skin brightness (ΔL*) [2]: 1.71 ± 0.31

- Tyrosinase activity inhibiting rate (%) [3]: 67.8%
SMILES: O=c1cc(CO)occ1O [Kojic acid, reference compound]

SMILES: O=C1O[C@H]([C@@H](O)CO)C(O)=C1O [Vitamin C, vitamin C, reference compound]
- Skin color brightness (ΔL*) [4]: 1.48 ± 0.71
